Measurements published in ChEMBL document CHEMBL5360618, “PepScaf: Harnessing Machine Learning with In Vitro Selection toward De Novo Macrocyclic Peptides against IL-17C/IL-17RE Interaction” (J Med Chem, 2023).
Positions of bridges follow the written chain, without caps; N, C: chain ends. Residues, ends and D or L forms follow the SMILES beside them.

biological target: T1, IL17-RE-IL-17C (Homo sapiens, UniProt Q8NFR9+Q9P0M4); assay: Inhibition of IL-17C/IL-17RE interaction (unknown origin) incubated for 1.5 hrs by ELISA method; assay type: protein-complex assay
T1 sequence (Q9P0M4 whole entry): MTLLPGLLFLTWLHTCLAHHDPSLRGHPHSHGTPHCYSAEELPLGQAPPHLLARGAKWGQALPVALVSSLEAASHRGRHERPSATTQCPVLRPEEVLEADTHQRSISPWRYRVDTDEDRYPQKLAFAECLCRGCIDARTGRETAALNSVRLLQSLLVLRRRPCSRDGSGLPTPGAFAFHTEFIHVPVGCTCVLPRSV
T1 sequence (Q8NFR9 whole entry): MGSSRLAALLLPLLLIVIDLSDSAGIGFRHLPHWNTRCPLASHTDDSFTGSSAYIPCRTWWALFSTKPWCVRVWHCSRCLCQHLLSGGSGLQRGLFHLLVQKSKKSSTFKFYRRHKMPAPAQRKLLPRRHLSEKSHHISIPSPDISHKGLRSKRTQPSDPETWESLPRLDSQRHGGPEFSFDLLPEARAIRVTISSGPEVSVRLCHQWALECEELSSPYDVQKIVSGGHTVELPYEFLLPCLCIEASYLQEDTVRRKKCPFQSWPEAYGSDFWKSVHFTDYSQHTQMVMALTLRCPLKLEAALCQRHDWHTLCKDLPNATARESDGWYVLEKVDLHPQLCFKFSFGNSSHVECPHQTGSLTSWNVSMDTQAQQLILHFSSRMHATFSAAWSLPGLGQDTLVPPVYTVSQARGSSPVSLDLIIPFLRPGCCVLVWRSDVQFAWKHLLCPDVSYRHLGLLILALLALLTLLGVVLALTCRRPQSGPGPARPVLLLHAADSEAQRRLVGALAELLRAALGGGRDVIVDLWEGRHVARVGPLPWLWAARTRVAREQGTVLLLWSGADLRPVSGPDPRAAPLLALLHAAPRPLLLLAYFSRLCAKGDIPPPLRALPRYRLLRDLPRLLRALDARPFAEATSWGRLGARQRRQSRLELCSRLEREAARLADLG

Row | IC50 | SMILES
1 | 12 nM | CC[C@H](C)[C@@H]1NC(=O)[C@H](Cc2c[nH]cn2)NC(=O)[C@H](Cc2ccc(O)cc2)NC(=O)CSC[C@@H](C(=O)NCC(N)=O)NC(=O)CNC(=O)[C@H](CC(C)C)NC(=O)[C@H](CC(C)C)NC(=O)CNC(=O)[C@H](Cc2ccc(O)cc2)NC(=O)[C@H](CC(C)C)NC(=O)[C@H](CO)NC(=O)[C@H](C)NC(=O)[C@H](Cc2ccc(O)cc2)NC(=O)[C@H](Cc2ccc(O)cc2)NC1=O ({CH2CO}-YHIYYASLYGLLGCG-NH2; thioether N-14)
2 | 4.4 nM | CC[C@H](C)[C@@H]1NC(=O)[C@H](Cc2c[nH]cn2)NC(=O)[C@H](Cc2ccc(O)cc2)NC(=O)CSC[C@@H](C(=O)NCC(N)=O)NC(=O)CNC(=O)[C@H](CC(C)C)NC(=O)[C@H](CC(N)=O)NC(=O)CNC(=O)[C@H](Cc2ccc(O)cc2)NC(=O)[C@H](CC(C)C)NC(=O)[C@H](CO)NC(=O)[C@H](C)NC(=O)[C@H](Cc2ccc(O)cc2)NC(=O)[C@H](Cc2ccc(O)cc2)NC1=O ({CH2CO}-YHIYYASLYGNLGCG-NH2; thioether N-14)
3 | 6.2 nM | CC[C@H](C)[C@@H]1NC(=O)[C@H](Cc2c[nH]cn2)NC(=O)[C@H](Cc2ccc(O)cc2)NC(=O)CSC[C@@H](C(=O)NCC(N)=O)NC(=O)CNC(=O)[C@H](CC(C)C)NC(=O)[C@H](Cc2c[nH]cn2)NC(=O)CNC(=O)[C@H](Cc2ccc(O)cc2)NC(=O)[C@H](CC(C)C)NC(=O)[C@H](CO)NC(=O)[C@H](Cc2ccccc2)NC(=O)[C@H](Cc2ccc(O)cc2)NC(=O)[C@H](Cc2ccc(O)cc2)NC1=O ({CH2CO}-YHIYYFSLYGHLGCG-NH2; thioether N-14)
4 | 3 nM | CC[C@H](C)[C@@H]1NC(=O)[C@H](Cc2c[nH]cn2)NC(=O)[C@H](Cc2ccc(O)cc2)NC(=O)CSC[C@@H](C(=O)NCC(N)=O)NC(=O)CNC(=O)[C@H](CC(C)C)NC(=O)[C@H](CCCNC(=N)N)NC(=O)CNC(=O)[C@H](Cc2ccc(O)cc2)NC(=O)[C@H](CC(C)C)NC(=O)[C@H](CO)NC(=O)[C@H](Cc2ccccc2)NC(=O)[C@H](Cc2ccc(O)cc2)NC(=O)[C@H](Cc2ccc(O)cc2)NC1=O ({CH2CO}-YHIYYFSLYGRLGCG-NH2; thioether N-14)
5 | 1.7 nM | CC[C@H](C)[C@@H]1NC(=O)[C@H](Cc2c[nH]cn2)NC(=O)[C@H](Cc2ccc(O)cc2)NC(=O)CSC[C@@H](C(=O)NCC(N)=O)NC(=O)CNC(=O)[C@H](CC(C)C)NC(=O)[C@H](CC(N)=O)NC(=O)CNC(=O)[C@H](Cc2ccc(O)cc2)NC(=O)[C@H](CC(C)C)NC(=O)[C@H](CO)NC(=O)[C@H](CCCNC(=N)N)NC(=O)[C@H](Cc2ccc(O)cc2)NC(=O)[C@H](Cc2ccc(O)cc2)NC1=O ({CH2CO}-YHIYYRSLYGNLGCG-NH2; thioether N-14)
6 | 7 nM | CC[C@H](C)[C@@H]1NC(=O)[C@H](Cc2c[nH]cn2)NC(=O)[C@H](Cc2ccc(O)cc2)NC(=O)CSC[C@@H](C(=O)NCC(N)=O)NC(=O)CNC(=O)[C@H](CC(C)C)NC(=O)[C@H](CO)NC(=O)CNC(=O)[C@H](Cc2ccc(O)cc2)NC(=O)[C@H](CC(C)C)NC(=O)[C@H](CO)NC(=O)[C@H](CO)NC(=O)[C@H](Cc2ccc(O)cc2)NC(=O)[C@H](Cc2ccc(O)cc2)NC1=O ({CH2CO}-YHIYYSSLYGSLGCG-NH2; thioether N-14)
7 | 6.4 nM | CC(C)C[C@@H]1NC(=O)[C@H](CC(N)=O)NC(=O)CNC(=O)[C@H](Cc2ccc(O)cc2)NC(=O)[C@H](CC(C)C)NC(=O)[C@H](CO)NC(=O)[C@H](C(C)C)NC(=O)[C@H](Cc2ccc(O)cc2)NC(=O)[C@H](Cc2ccc(O)cc2)NC(=O)[C@H](CC(C)C)NC(=O)[C@H](Cc2c[nH]cn2)NC(=O)[C@H](Cc2ccc(O)cc2)NC(=O)CSC[C@@H](C(=O)NCC(N)=O)NC(=O)CNC1=O ({CH2CO}-YHLYYVSLYGNLGCG-NH2; thioether N-14)
8 | 12 nM | CC(C)C[C@@H]1NC(=O)[C@H](CO)NC(=O)CNC(=O)[C@H](Cc2ccc(O)cc2)NC(=O)[C@H](CC(C)C)NC(=O)[C@H](CO)NC(=O)[C@H](C(C)C)NC(=O)[C@H](Cc2ccc(O)cc2)NC(=O)[C@H](Cc2ccc(O)cc2)NC(=O)[C@H](CC(C)C)NC(=O)[C@H](Cc2c[nH]cn2)NC(=O)[C@H](Cc2ccc(O)cc2)NC(=O)CSC[C@@H](C(=O)NCC(N)=O)NC(=O)CNC1=O ({CH2CO}-YHLYYVSLYGSLGCG-NH2; thioether N-14)

The next lines start with the molecule.

Row | SMILES | IC50
9 | CC[C@H](C)[C@@H]1NC(=O)[C@H](Cc2c[nH]cn2)NC(=O)[C@H](Cc2ccc(O)cc2)NC(=O)CSC[C@@H](C(=O)NCC(N)=O)NC(=O)CNC(=O)[C@H](CC(C)C)NC(=O)[C@H](CC(N)=O)NC(=O)CNC(=O)[C@H](Cc2ccc(O)cc2)NC(=O)[C@H](CC(C)C)NC(=O)[C@H]([C@@H](C)CC)NC(=O)[C@H](CCCNC(=N)N)NC(=O)[C@H](Cc2ccc(O)cc2)NC(=O)[C@H](Cc2ccc(O)cc2)NC1=O ({CH2CO}-YHIYYRILYGNLGCG-NH2; thioether N-14) | 4.5 nM
10 | CC[C@H](C)[C@@H]1NC(=O)[C@H](Cc2c[nH]cn2)NC(=O)[C@H](Cc2ccc(O)cc2)NC(=O)CSC[C@@H](C(=O)NCC(N)=O)NC(=O)CNC(=O)[C@H](CC(C)C)NC(=O)[C@H](CO)NC(=O)CNC(=O)[C@H](Cc2ccc(O)cc2)NC(=O)[C@H](CC(C)C)NC(=O)[C@H]([C@@H](C)CC)NC(=O)[C@H](CCCNC(=N)N)NC(=O)[C@H](Cc2ccc(O)cc2)NC(=O)[C@H](Cc2ccc(O)cc2)NC1=O ({CH2CO}-YHIYYRILYGSLGCG-NH2; thioether N-14) | 6.3 nM
11 | CC[C@H](C)[C@@H]1NC(=O)[C@H](Cc2c[nH]cn2)NC(=O)[C@H](Cc2ccc(O)cc2)NC(=O)CSC[C@@H](C(=O)NCC(N)=O)NC(=O)CNC(=O)[C@H](CC(C)C)NC(=O)[C@H](CCCCN)NC(=O)[C@H](CCC(N)=O)NC(=O)[C@H](Cc2ccc(O)cc2)NC(=O)[C@H]([C@@H](C)CC)NC(=O)[C@H](CCC(N)=O)NC(=O)[C@H](CCCNC(=N)N)NC(=O)[C@H](Cc2ccc(O)cc2)NC(=O)[C@H](Cc2ccc(O)cc2)NC1=O ({CH2CO}-YHIYYRQIYQKLGCG-NH2; thioether N-14) | 328 nM
12 | CC(C)C[C@@H]1NC(=O)[C@H](CC(N)=O)NC(=O)CNC(=O)[C@H](Cc2ccc(O)cc2)NC(=O)[C@H](CC(C)C)NC(=O)[C@H](CO)NC(=O)[C@H](C)NC(=O)[C@H](Cc2ccc(O)cc2)NC(=O)[C@H](Cc2ccc(O)cc2)NC(=O)[C@H](CC(C)C)NC(=O)[C@H](Cc2c[nH]cn2)NC(=O)[C@H](Cc2ccc(O)cc2)NC(=O)CSC[C@@H](C(=O)NCC(N)=O)NC(=O)CNC1=O ({CH2CO}-YHLYYASLYGNLGCG-NH2; thioether N-14) | 9.6 nM
13 | CC[C@H](C)[C@@H]1NC(=O)[C@H](CCCNC(=N)N)NC(=O)[C@H](Cc2ccc(O)cc2)NC(=O)[C@H](Cc2ccc(O)cc2)NC(=O)[C@H](CC(C)C)NC(=O)[C@H](Cc2c[nH]cn2)NC(=O)[C@H](Cc2ccc(O)cc2)NC(=O)CSC[C@@H](C(=O)NCC(N)=O)NC(=O)CNC(=O)[C@H](CC(C)C)NC(=O)[C@H](CC(N)=O)NC(=O)CNC(=O)[C@H](Cc2ccc(O)cc2)NC(=O)[C@H](CC(C)C)NC1=O ({CH2CO}-YHLYYRILYGNLGCG-NH2; thioether N-14) | 11.3 nM
14 | CC(C)C[C@@H]1NC(=O)[C@H](CC(N)=O)NC(=O)CNC(=O)[C@H](Cc2ccc(O)cc2)NC(=O)[C@H](CC(C)C)NC(=O)[C@H](CC(C)C)NC(=O)[C@H](CCCNC(=N)N)NC(=O)[C@H](Cc2ccc(O)cc2)NC(=O)[C@H](Cc2ccc(O)cc2)NC(=O)[C@H](CC(C)C)NC(=O)[C@H](Cc2c[nH]cn2)NC(=O)[C@H](Cc2ccc(O)cc2)NC(=O)CSC[C@@H](C(=O)NCC(N)=O)NC(=O)CNC1=O ({CH2CO}-YHLYYRLLYGNLGCG-NH2; thioether N-14) | 48.8 nM
